Values joined by “and” are separate entries in the source; they are usually repeats but may differ in a detail not shown here. Equal values may be shown once.
Tested on: Trinitrobenzenesulfonic Acid (TNBS) Rat Model of Colonic Inflammation
Assay: Trinitrobenzenesulfonic acid (TNBS) rat model of colonic inflammation, oral treatment Days 1-6, evaluation Day 7
Format: in vivo, Sprague-Dawley rats
Set-up: key to Average Colonic Score: sum of adhesions, strictures, ulcers and wall thickness scores
Settings: for Average # Ulcers / Average Colon Length / Average Colon Weight / Average Colonic Score / Average Ratio (colon length/colon weight) / Average Ulcer Length / Average Wall Thickness / Average Adhesions / Average Colon Wall Thickness, score / Average Strictures / Average Ulcers, score / Average Rat Weight: group mean; for Average # Ulcers / Average Colon Length / Average Colon Weight / Average Colonic Score / Average Ratio (colon length/colon weight) / Average Ulcer Length / Average Wall Thickness / Average Adhesions / Average Colon Wall Thickness, score / Average Strictures / Average Ulcers, score / # Ulcers / Colon Length / Colon Weight / Ratio (colon length/colon weight) / Ulcer Length / Wall Thickness / Colon Wall Thickness, score / Ulcers, score / Strictures / Adhesions / Colonic Score: Day 7; for Average Adhesions / Average Colon Wall Thickness, score: score 0-2; for Average Strictures / Average Ulcers, score: score 0-3; for # Ulcers / Colon Length / Colon Weight / Ratio (colon length/colon weight) / Ulcer Length / Wall Thickness / Colon Wall Thickness, score / Ulcers, score / Strictures / Adhesions / Colonic Score / Rat Weight: individual rats; for Colon Wall Thickness, score: less than 1 mm=0, 1-3 mm=1, >3 mm=2; for Ulcers, score: none=0, linear ulceration <1 cm=1, two linear ulcers <1 cm=2, more sites or one large ulcer=3; for Strictures: score none=0, mild=1, moderate=2, severe, proximal dilatation=3; for Adhesions: score none=0, minimal=1, involving several bowel loops=2; for Colonic Score: sum of adhesions, strictures, ulcers and wall thickness scores
Method: In Vivo Efficacy of PDE4 Inhibitor Prodrug in the Trinitrobenzenesulfonic Acid (TNBS) Rat Model of Colonic Inflammation
2. 1.62 g of prodrug from Example 2 (WB301), lot 2 (MW 587.12) in a clear 20 mL glass vial (orange material) which was stored at 4-8° C.
38 Sprague-Dawley rats (Harlan Sprague-Dawley, Inc. male, PO #599229, R #3450, 200-220 g) were received, individually examined and housed in nine cages of four rats each and one cage containing two rats. No clinical signs of disease or distress were observed. The rats were placed in quarantine with daily inspections. The rats were ear notched (SOP 800) for identification purposes, weighed (RESULTS), and sorted into four treatment groups of eight rats each based upon average body weight. The rats were individually examined and found to be free of any clinical signs of disease or distress. No deaths were recorded during the quarantine period. The rats were released to routine maintenance.
A 16 mg/ml TNBS solution was prepared be adding 2.729 ml picrylsulfonic acid solution (1 M, FLU KA, Cat. 92822, lot CDBB6609V) to 22.271 ml de-ionized water (dH20) and 25 ml 100% ethanol (200 proof, Sigma, Cat. E7023, lot SHBH3633V).
The rats were weighed (RESULTS), anesthetized (SOP1810) and Groups 1-4 were intra-rectally instilled with 4 ml/kg TNBS solution (64 mg/kg), the anus was pinched closed and the rat held inverted for one minute.
400 mg (-)riboflavin was dissolved in 40 ml DMSO (Sigma, Cat. D5879, lot 16K0127) by sonication in a 40° C. water bath for 20 minutes in an amber glass bottle, followed by storage at room temperature overnight to prepare a 10 mg/ml yellow solution.
135 mg NaOH (Fisher Scientific, Cat. S320, lot 066620) was dissolved in 100 ml dH2O to prepare a 1.35 mg/ml solution. 128.46 mg prednisolone 21-hemisuccinate sodium salt (Sigma, Cat. P4153, lot BCBB6136V, salt factor 1.339) was dissolved in 9.59 ml (-)riboflavin/DMSO followed by addition of 9.59 ml PEG400 (Sigma, Cat. 91893, lot BCBB7720). 28.781 aqueous NaOH was added with sonication to prepare a 2 mg/ml solution for Group 4. 44 mg WB301 was vortexed in 2.19 ml (-)riboflavin/DMSO to yield an orange solution followed by addition of 2.19 ml PEG400. 6.621 ml aqueous NaOH was added with sonication to prepare a 4 mg/ml solution for Group 1. 132 mg WB301 was vortexed in 2.19 ml (-)riboflavin/DMSO to yield an orange solution followed by addition of 2.19 ml PEG400. 6.621 ml aqueous NaOH was added with sonication to prepare a 12 mg/ml solution for Group 2. 6.6 mg apremilast was vortexed in 2.2 ml (-)riboflavin/DMSO to yield an orange solution followed by addition of 6.6 ml PEG400. 2.2 ml dH2O was added to prepare a 0.6 mg/ml solution for Group 3.
The rats were weighed (RESULTS) and daily oral (PO, SOP 1651) dosing at 5 ml/kg was initiated as in TABLE 1.
The rats were weighed (RESULTS) and the animals were dosed as described above daily. WB301 and apremilast solutions were prepared fresh daily as described above.
The rats were weighed (RESULTS) anesthetized, a midline incision was made in the abdomen and the colon was evaluated for adhesions and stricture (RESULTS). The colon was removed and the length recorded (RESULTS). A midline incision was made the entire length of the colon, the contents removed and the colon weight and colon wall thickness recorded (RESULTS). A section of the colon was preserved in 20 volumes of 10% neutral buffered formalin (Richard-Allan Scientific, Cat. 5701, lot 378532, exp07/2020). The carcasses were disposed of.
3) involving several bowel loops=2
4) severe, proximal dilatation=3
2) linear ulceration <1 cm=1
3) two linear ulcers <1 cm=2
4) more sites of ulceration or one large ulcer=3

[1] = Group 1, 20 mg/kg once daily oral, starting 24 hours after TNBS
[2] = Group 2, 60 mg/kg once daily oral
[3] = Group 2, 60 mg/kg PO daily, study day 0, day of TNBS, before dosing
[4] = Group 2, 60 mg/kg PO daily, study day 1, before first dose
[5] = Group 2, 60 mg/kg PO daily, study day 2
[6] = Group 2, 60 mg/kg PO daily, study day 3
[7] = Group 2, 60 mg/kg PO daily, study day 4
[8] = Group 2, 60 mg/kg PO daily, study day 5
[9] = Group 2, 60 mg/kg PO daily, study day 6
[10] = Group 2, 60 mg/kg PO daily, study day 7
[11] = Group 2, 60 mg/kg PO daily, study day −3, before TNBS and dosing

CCOc1cc([C@@H](CS(C)(=O)=O)N2C(=O)c3cccc(/N=N/c4ccc(O)c(C(=O)O)c4)c3C2=O)ccc1OC [WB301]
effect on TNBS-induced damage across doses (20 and 60 mg/kg once daily oral, starting 24 hours after TNBS): dose-dependent reduction in the TNBS-induced damage | amelioratory effect on TNBS-induced damage [1]: no apparent amelioratory effect was observed | weight loss [1]: 15% | macroscopic disease scores [2]: improvement of the macroscopic disease scores | study day on which rats began to recover from TNBS-induced weight loss [2]: 6 days | reduction in overall colonic score (Group 2, 60 mg/kg once daily oral, assuming a colonic score of 10 for vehicle-treated rats): 25% | stool observation in cages/bedding (Group 2, 60 mg/kg once daily oral, starting DAY 4, indicative of partial colon function): Diarrhea was observed in the bedding | Average # Ulcers (Group 1, 20 mg/kg PO daily): 1 | Average Colon Length (Group 1, 20 mg/kg PO daily): 11.4 cm | Average Colon Weight (Group 1, 20 mg/kg PO daily): 6.652 g | Average Colonic Score (Group 1, 20 mg/kg PO daily): 9.1 | Average Ratio (colon length/colon weight) (Group 1, 20 mg/kg PO daily): 1.915 cm/g | Average Ulcer Length (Group 1, 20 mg/kg PO daily): 6.3 cm | Average Wall Thickness (Group 1, 20 mg/kg PO daily): 3.4 mm | Average Adhesions (Group 1, 20 mg/kg PO daily): 1.5 | Average Colon Wall Thickness, score (Group 1, 20 mg/kg PO daily): 1.8 | Average Strictures (Group 1, 20 mg/kg PO daily): 2.9 | Average Ulcers, score (Group 1, 20 mg/kg PO daily): 3.0 | Average Rat Weight (Group 1, 20 mg/kg PO daily, study day 0, day of TNBS, before dosing): 219 g | Average Rat Weight (Group 1, 20 mg/kg PO daily, study day 1, before first dose): 213 g | Average Rat Weight (Group 1, 20 mg/kg PO daily, study day 2): 203 g | Average Rat Weight (Group 1, 20 mg/kg PO daily, study day 3): 197 g | Average Rat Weight (Group 1, 20 mg/kg PO daily, study day 4): 195 g | Average Rat Weight (Group 1, 20 mg/kg PO daily, study day 5): 189 g | Average Rat Weight (Group 1, 20 mg/kg PO daily, study day 6): 189 g | Average Rat Weight (Group 1, 20 mg/kg PO daily, study day 7): 186 g | Average Rat Weight (Group 1, 20 mg/kg PO daily, study day −3, before TNBS and dosing): 215 g | Average # Ulcers (Group 2, 60 mg/kg PO daily): 1 | Average Colon Length (Group 2, 60 mg/kg PO daily): 14.4 cm | Average Colon Weight (Group 2, 60 mg/kg PO daily): 4.604 g | Average Colonic Score (Group 2, 60 mg/kg PO daily): 7.5 | Average Ratio (colon length/colon weight) (Group 2, 60 mg/kg PO daily): 3.891 cm/g | Average Ulcer Length (Group 2, 60 mg/kg PO daily): 5.6 cm | Average Wall Thickness (Group 2, 60 mg/kg PO daily): 2.6 mm | Average Adhesions (Group 2, 60 mg/kg PO daily): 1.3 | Average Colon Wall Thickness, score (Group 2, 60 mg/kg PO daily): 1.1 | Average Strictures (Group 2, 60 mg/kg PO daily): 2.1 | Average Ulcers, score (Group 2, 60 mg/kg PO daily): 3.0 | Average Rat Weight [3]: 216 g | Average Rat Weight [4]: 207 g | Average Rat Weight [5]: 200 g | Average Rat Weight [6]: 193 g | Average Rat Weight [7]: 192 g | Average Rat Weight [8]: 191 g | Average Rat Weight [9]: 195 g | Average Rat Weight [10]: 196 g | Average Rat Weight [11]: 215 g | # Ulcers (Group 1, 20 mg/kg PO daily): 1 | Colon Length (Group 1, 20 mg/kg PO daily): 12.0 cm and 10.0 cm and 10.5 cm and 11.0 cm (3×) and 12.5 cm and 13.5 cm | Colon Weight (Group 1, 20 mg/kg PO daily): 9.124 g and 7.629 g and 3.180 g and 4.920 g and 9.000 g and 8.300 g and 6.200 g and 4.862 g | Ratio (colon length/colon weight) (Group 1, 20 mg/kg PO daily): 1.315 cm/g and 1.311 cm/g and 3.302 cm/g and 2.236 cm/g and 1.389 cm/g and 1.325 cm/g and 2.177 cm/g and 2.262 cm/g | Ulcer Length (Group 1, 20 mg/kg PO daily): 6.0 cm (3×) and 6.3 cm and 7.0 cm and 5.5 cm and 6.8 cm and 6.5 cm | Wall Thickness (Group 1, 20 mg/kg PO daily): 3.5 mm and 3.2 mm and 4.0 mm (2×) and 3.7 mm (2×) and 2.5 mm (2×) | Colon Wall Thickness, score (Group 1, 20 mg/kg PO daily): 2 (6×) and 1 (2×) | Ulcers, score (Group 1, 20 mg/kg PO daily): 3 | Strictures (Group 1, 20 mg/kg PO daily): 3 (7×) and 2 | Adhesions (Group 1, 20 mg/kg PO daily): 1 (4×) and 2 (4×) | Colonic Score (Group 1, 20 mg/kg PO daily): 9 (2×) and 10 (4×) and 8 and 7 | # Ulcers (Group 2, 60 mg/kg PO daily): 1 | Colon Length (Group 2, 60 mg/kg PO daily): 15.0 cm (5×) and 14.5 cm and 14.0 cm and 11.5 cm | Colon Weight (Group 2, 60 mg/kg PO daily): 2.551 g and 1.969 g and 6.164 g and 5.418 g and 9.037 g and 4.831 g and 4.140 g and 2.719 g | Ratio (colon length/colon weight) (Group 2, 60 mg/kg PO daily): 5.880 cm/g and 7.618 cm/g and 2.352 cm/g and 2.769 cm/g and 1.549 cm/g and 3.105 cm/g and 3.623 cm/g and 4.229 cm/g | Ulcer Length (Group 2, 60 mg/kg PO daily): 3.5 cm and 4.0 cm and 6.0 cm (2×) and 6.5 cm (2×) and 6.7 cm and 5.5 cm | Wall Thickness (Group 2, 60 mg/kg PO daily): 2.0 mm (4×) and 3.0 mm (2×) and 4.0 mm and 2.5 mm | Colon Wall Thickness, score (Group 2, 60 mg/kg PO daily): 1 (7×) and 2 | Ulcers, score (Group 2, 60 mg/kg PO daily): 3 | Strictures (Group 2, 60 mg/kg PO daily): 1 (2×) and 0 and 3 (5×) | Adhesions (Group 2, 60 mg/kg PO daily): 0 (2×) and 2 (4×) and 1 (2×) | Colonic Score (Group 2, 60 mg/kg PO daily): 5 and 4 and 9 (3×) and 8 and 10 and 6 | Rat Weight [3]: 217 g and 215 g and 214 g and 222 g and 208 g and 211 g and 220 g (2×) | Rat Weight [4]: 206 g and 202 g and 213 g (2×) and 207 g and 203 g (2×) and 212 g | Rat Weight [5]: 205 g and 199 g and 204 g and 200 g (2×) and 195 g and 206 g and 193 g | Rat Weight [6]: 199 g and 200 g (2×) and 197 g and 196 g and 184 g (2×) and 183 g | Rat Weight [7]: 192 g and 212 g and 200 g (2×) and 193 g and 179 g and 183 g and 176 g | Rat Weight [8]: 196 g and 226 g and 191 g and 192 g and 182 g and 174 g and 199 g and 171 g | Rat Weight [9]: 207 g and 233 g and 193 g and 197 g and 184 g and 172 g and 199 g and 171 g | Rat Weight [10]: 220 g and 244 g and 187 g and 189 g and 178 g and 169 g and 196 g and 181 g | Rat Weight [11]: 214 g and 212 g and 215 g and 219 g and 208 g and 210 g and 220 g (2×)
